According to patent US11053204B2, “Pyrimidinyloxy benzene derivatives as herbicides” (FMC Corporation, priority 2015, dated 2021):

Tests used:
Assay type in all cases: in vivo
[1] = system: Italian ryegrass (Lolium multiflorum); experiment: Test A preemergence, visual injury rating; details: Lolium multiflorum, pre-emergence, 240 h, 0 to 100 scale (0 no effect, 100 complete control), read-out: Ryegrass, Italian plant response rating
Method in brief: (§1)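 Greenhouse pot test, loam/sand soil. Formulation: non-phytotoxic solvent mix plus surfactant. Pre: directed spray onto soil after sowing. Post: plants at 1–2 leaf, 2–10 cm. Rated visually vs untreated controls at ~10 d, 0 (no effect) to 100 (complete control).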

[2] = system: barnyardgrass (Echinochloa crus-galli); experiment: Test A preemergence, visual injury rating; details: Echinochloa crus-galli, pre-emergence, 240 h, 0 to 100 scale (0 no effect, 100 complete control), read-out: Barnyardgrass plant response rating
Method in brief: as §1

[3] = system: giant foxtail (Setaria faberii); experiment: Test A preemergence, visual injury rating; details: Setaria faberi, pre-emergence, 240 h, 0 to 100 scale (0 no effect, 100 complete control), read-out: Foxtail, Giant plant response rating
Method in brief: as §1

[4] = system: ragweed (common ragweed, Ambrosia elatior); experiment: Test A preemergence, visual injury rating; details: Ambrosia artemisiifolia, pre-emergence, 240 h, 0 to 100 scale (0 no effect, 100 complete control), read-out: Ragweed plant response rating
Method in brief: as §1

[5] = system: pigweed (Amaranthus retroflexus); experiment: Test A preemergence, visual injury rating; details: Amaranthus retroflexus, pre-emergence, 240 h, 0 to 100 scale (0 no effect, 100 complete control), read-out: Pigweed plant response rating
Method in brief: as §1

[6] = system: kochia (Kochia scoparia); experiment: Test A preemergence, visual injury rating; details: Bassia scoparia, pre-emergence, 240 h, 0 to 100 scale (0 no effect, 100 complete control), read-out: Kochia plant response rating
Method in brief: as §1

[7] = system: ducksalad (Heteranthera limosa); experiment: Test B flooded paddy test, plant response rating; details: Heteranthera limosa, 312 h; 250 g ai/ha; Flood; scale of 0 to 100 where 0 is no effect and 100 is complete control; 13 to 15 days
Method in brief: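 In-water treatment: compound dosed into 3 cm flood over soil, water level unchanged throughout. Controls run alongside; visual assessment at day 13–15.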

[8] = system: morningglory (Ipomoea coccinea); experiment: Test C postemergence, plant response rating; details: Ipomoea, post-emergence
Method in brief: (§2)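 Both timings shared one formulation, a non-phytotoxic solvent mixture with surfactant, and a greenhouse period of 13 to 15 d. Preemergence used seeded loam/sand or silt loam soil, postemergence used 2 to 18 cm plants; visual ratings ran from 0 (no effect) to 100 (complete control).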

[9] = system: barnyardgrass (Echinochloa crus-galli); experiment: Test C postemergence, plant response rating; details: Echinochloa crus-galli, post-emergence
Method in brief: as §2

[10] = system: oat, wild (wild oat Avena fatua); experiment: Test C postemergence, plant response rating; details: Avena fatua, post-emergence
Method in brief: as §2

[11] = system: crabgrass, large (large crabgrass, Digitaria sanguinalis); experiment: Test C postemergence, plant response rating; details: Digitaria sanguinalis, post-emergence
Method in brief: as §2

[12] = system: ragweed (common ragweed, Ambrosia elatior); experiment: Test C postemergence, plant response rating; details: Ambrosia artemisiifolia, post-emergence
Method in brief: as §2

[13] = system: lambsquarters (Chenopodium album); experiment: Test C postemergence, plant response rating; details: Chenopodium album, post-emergence
Method in brief: as §2

[14] = system: nutsedge, yellow (yellow nutsedge, Cyperus esculentus); experiment: Test C postemergence, plant response rating; details: Cyperus, post-emergence
Method in brief: as §2

[15] = system: velvetleaf (Abutilon theophrasti); experiment: Test C postemergence, plant response rating; details: Abutilon theophrasti, post-emergence
Method in brief: as §2

[16] = system: corn (Zea mays); experiment: Test C postemergence, plant response rating; details: Zea mays, post-emergence
Method in brief: as §2

[17] = system: kochia (Kochia scoparia); experiment: Test C postemergence, plant response rating; details: Bassia scoparia, post-emergence
Method in brief: as §2

CCCOC(=O)c1c(Br)cccc1Oc1ncc(Cl)cn1 [Compound 13, propyl 2-bromo-6-[(5-chloro-2-pyrimidinyl)oxy]benzoate]
pest or weed control at 125 g/ha ([1]; 125 g ai/ha): 10%
pest or weed control at 500 g/ha ([1]; 500 g ai/ha): 90%
pest or weed control at 125 g/ha ([2]; 125 g ai/ha): 100%
pest or weed control at 500 g/ha ([2]; 500 g ai/ha): 100%
pest or weed control at 125 g/ha ([3]; 125 g ai/ha): 100%
pest or weed control at 500 g/ha ([3]; 500 g ai/ha): 100%
pest or weed control at 125 g/ha ([4]; 125 g ai/ha): 0%
pest or weed control at 500 g/ha ([4]; 500 g ai/ha): 0%
pest or weed control at 125 g/ha ([5]; 125 g ai/ha): 100%
pest or weed control at 500 g/ha ([5]; 500 g ai/ha): 100%
pest or weed control at 125 g/ha ([6]; 125 g ai/ha): 90%
pest or weed control at 500 g/ha ([6]; 500 g ai/ha): 100%
pest or weed control at 250 g/ha [7]: 70%
pest or weed control at 4 g/ha ([8]; 4 g ai/ha, scale of 0 to 100): 5%
pest or weed control at 8 g/ha ([8]; 8 g ai/ha, scale of 0 to 100): 5%
pest or weed control at 16 g/ha ([8]; 16 g ai/ha, scale 0 to 100): 20%
pest or weed control at 31 g/ha ([8]; 31 g ai/ha, scale 0 to 100): 30%
pest or weed control at 4 g/ha ([9]; 4 g ai/ha, scale of 0 to 100): 5%
pest or weed control at 8 g/ha ([9]; 8 g ai/ha, scale of 0 to 100): 5%
pest or weed control at 16 g/ha ([9]; 16 g ai/ha, scale 0 to 100): 10%
pest or weed control at 31 g/ha ([9]; 31 g ai/ha, scale 0 to 100): 10%
pest or weed control at 4 g/ha ([10]; 4 g ai/ha, scale of 0 to 100): 0%
pest or weed control at 8 g/ha ([10]; 8 g ai/ha, scale of 0 to 100): 0%
pest or weed control at 16 g/ha ([10]; 16 g ai/ha, scale 0 to 100): 0%
pest or weed control at 31 g/ha ([10]; 31 g ai/ha, scale 0 to 100): 5%
pest or weed control at 4 g/ha ([11]; 4 g ai/ha, scale of 0 to 100): 5%
pest or weed control at 8 g/ha ([11]; 8 g ai/ha, scale of 0 to 100): 5%
pest or weed control at 16 g/ha ([11]; 16 g ai/ha, scale 0 to 100): 5%
pest or weed control at 31 g/ha ([11]; 31 g ai/ha, scale 0 to 100): 15%
pest or weed control at 4 g/ha ([12]; 4 g ai/ha, scale of 0 to 100): 5%
pest or weed control at 8 g/ha ([12]; 8 g ai/ha, scale of 0 to 100): 5%
pest or weed control at 16 g/ha ([12]; 16 g ai/ha, scale 0 to 100): 5%
pest or weed control at 31 g/ha ([12]; 31 g ai/ha, scale 0 to 100): 5%
pest or weed control at 4 g/ha ([13]; 4 g ai/ha, scale of 0 to 100): 30%
pest or weed control at 8 g/ha ([13]; 8 g ai/ha, scale of 0 to 100): 60%
pest or weed control at 16 g/ha ([13]; 16 g ai/ha, scale 0 to 100): 50%
pest or weed control at 31 g/ha ([13]; 31 g ai/ha, scale 0 to 100): 55%
pest or weed control at 4 g/ha ([14]; 4 g ai/ha, scale of 0 to 100): 0%
pest or weed control at 8 g/ha ([14]; 8 g ai/ha, scale of 0 to 100): 0%
pest or weed control at 16 g/ha ([14]; 16 g ai/ha, scale 0 to 100): 5%
pest or weed control at 31 g/ha ([14]; 31 g ai/ha, scale 0 to 100): 5%
pest or weed control at 4 g/ha ([15]; 4 g ai/ha, scale of 0 to 100): 15%
pest or weed control at 8 g/ha ([15]; 8 g ai/ha, scale of 0 to 100): 15%
pest or weed control at 16 g/ha ([15]; 16 g ai/ha, scale 0 to 100): 20%
pest or weed control at 31 g/ha ([15]; 31 g ai/ha, scale 0 to 100): 25%
Corn plant response rating (crop injury, 0 = no effect, 100 = complete kill) at 4 g/ha ([16]; 4 g ai/ha, scale of 0 to 100): 5%
Corn plant response rating (crop injury, 0 = no effect, 100 = complete kill) at 8 g/ha ([16]; 8 g ai/ha, scale of 0 to 100): 5%
Corn plant response rating (crop injury, 0 = no effect, 100 = complete kill) at 16 g/ha ([16]; 16 g ai/ha, scale 0 to 100): 10%
Corn plant response rating (crop injury, 0 = no effect, 100 = complete kill) at 31 g/ha ([16]; 31 g ai/ha, scale 0 to 100): 5%
pest or weed control at 4 g/ha ([17]; 4 g ai/ha, scale of 0 to 100): 0%
pest or weed control at 8 g/ha ([17]; 8 g ai/ha, scale of 0 to 100): 5%
pest or weed control at 16 g/ha ([17]; 16 g ai/ha, scale 0 to 100): 30%
pest or weed control at 31 g/ha ([17]; 31 g ai/ha, scale 0 to 100): 30%
